Data as given in the supplement of paper PMC10307832.

What was measured:
Experiment in all cases: relative viability (nuclei count vs DMSO), 5 days (fraction); higher = more cells survive
YM155 + Crizotinib = compound: COCC[n+]1c2c(n(Cc3cnccn3)c1C)C(=O)c1ccccc1C2=O [YM155] + C[C@@H](Oc1cc(-c2cnn(C3CCNCC3)c2)cnc1N)c1c(Cl)ccc(F)c1Cl [Crizotinib] (partner 1 µM)
How it was run: (§1)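 Relative viability was taken as the ratio of nuclei in treated wells to nuclei in vehicle wells. Lung cancer cell lines in 1536-well plates received compounds by pin tool one day after seeding, either one drug alone or a fixed anchor-drug dose plus five library-drug doses (not always all listed) in √10 steps. Nuclei were counted on 4× images after 5 days of treatment, and values are medians of duplicate plates.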

Quizartinib + Tozasertib = compound: CC(C)(C)c1cc(NC(=O)Nc2ccc(-c3cn4c(n3)sc3cc(OCCN5CCOCC5)ccc34)cc2)no1 [Quizartinib] + Cc1cc(Nc2cc(N3CCN(C)CC3)nc(Sc3ccc(NC(=O)C4CC4)cc3)n2)n[nH]1 [Tozasertib] (partner 0.1 µM)
How it was run: as §1

YM155 + Pemetrexed = compound: COCC[n+]1c2c(n(Cc3cnccn3)c1C)C(=O)c1ccccc1C2=O [YM155] + Nc1nc2[nH]cc(CCc3ccc(C(=O)N[C@@H](CCC(=O)O)C(=O)O)cc3)c2c(=O)[nH]1 [Pemetrexed] (partner 0.2 µM)
How it was run: as §1

YM155 + Navitoclax = compound: COCC[n+]1c2c(n(Cc3cnccn3)c1C)C(=O)c1ccccc1C2=O [YM155] + CC1(C)CCC(c2ccc(Cl)cc2)=C(CN2CCN(c3ccc(C(=O)NS(=O)(=O)c4ccc(N[C@H](CCN5CCOCC5)CSc5ccccc5)c(S(=O)(=O)C(F)(F)F)c4)cc3)CC2)C1 [Navitoclax] (partner 0.5 µM)
How it was run: as §1

Cell Line | relative viability (YM155 + Crizotinib; first compound 0.002 µM) | relative viability (YM155 + Crizotinib; first compound 0.006325 µM) | relative viability (YM155 + Crizotinib; first compound 0.02 µM) | relative viability (YM155 + Crizotinib; first compound 0.06325 µM) | relative viability (Quizartinib + Tozasertib; first compound 0.001 µM) | relative viability (Quizartinib + Tozasertib; first compound 0.003162 µM) | relative viability (Quizartinib + Tozasertib; first compound 0.01 µM) | relative viability (Quizartinib + Tozasertib; first compound 0.03162 µM) | relative viability (Quizartinib + Tozasertib; first compound 0.1 µM) | relative viability (YM155 + Pemetrexed; first compound 0.002 µM) | relative viability (YM155 + Pemetrexed; first compound 0.006325 µM) | relative viability (YM155 + Pemetrexed; first compound 0.02 µM) | relative viability (YM155 + Pemetrexed; first compound 0.06325 µM) | relative viability (YM155 + Navitoclax; first compound 0.002 µM) | relative viability (YM155 + Navitoclax; first compound 0.006325 µM) | relative viability (YM155 + Navitoclax; first compound 0.02 µM) | relative viability (YM155 + Navitoclax; first compound 0.06325 µM)
201T | 0.98 | 1 | 1.01 | 1.03 | 0.878 | 0.858 | 0.995 | 0.887 | 0.854 | 0.31 | 0.406 | 0.298 | 0.28 | 1.26 | 1.18 | 1.17 | 1.23
A549 | 0.717 | 0.592 | 0.654 | 0.142 |  |  |  |  |  |  |  |  |  | 1.28 | 1.24 | 1.11 | 0.14
A-427 | 0.959 | 0.839 | 0.89 | 0.865 |  | 0.204 | 0.191 | 0.204 | 0.189 | 0.941 | 1.02 | 1 | 0.762 | 0.984 | 0.88 | 0.91 | 0.997
ABC-1 | 0.844 | 0.341 | 0.166 | 0.15 | 0.184 | 0.179 | 0.172 | 0.205 | 0.183 |  |  |  |  |  |  |  | 
BEN | 0.873 | 0.987 | 0.863 | 1.05 | 0.48 | 0.504 | 0.562 | 0.54 | 0.39 | 0.63 | 0.839 | 0.934 | 0.908 | 0.0838 | 0.0769 | 0.0788 | 0.0609
CAL-12T | 0.608 | 0.696 | 0.551 | 0.409 | 0.32 | 0.283 | 0.315 | 0.234 | 0.199 | 1.23 | 1.22 | 1.11 | 0.569 | 1.22 | 1.16 | 1.16 | 0.299
COR-L23 | 0.649 | 0.569 | 0.403 | 0.105 | 0.175 | 0.178 | 0.159 | 0.116 | 0.139 | 0.194 | 0.198 | 0.18 | 0.136 | 0.905 | 0.877 | 0.505 | 0.123
Calu-6 | 0.728 | 0.776 | 0.349 | 0.135 |  |  |  |  |  |  |  |  |  | 0.849 | 0.589 | 0.191 | 0.112
EBC-1 | 0.186 | 0.193 | 0.206 | 0.202 |  |  |  |  |  |  |  |  |  | 0.428 | 0.404 | 0.458 | 0.389
IA-LM | 0.825 | 0.766 | 0.685 | 0.548 |  |  |  |  |  |  |  |  |  | 0.723 | 0.757 | 0.811 | 0.585
LCLC-103H | 0.971 | 1.03 | 1.03 | 1 | 0.391 | 0.47 | 0.441 | 0.491 | 0.522 | 0.473 | 0.453 | 0.416 | 0.463 |  |  |  | 
NCI-H358 | 0.538 | 0.594 | 0.592 | 0.214 | 0.0852 | 0.0998 | 0.115 | 0.102 | 0.0995 | 0.181 | 0.172 | 0.167 | 0.127 |  |  |  | 
NCI-H522 |  |  |  |  | 0.571 | 0.585 | 0.585 | 0.559 | 0.569 | 0.841 | 0.938 | 0.92 | 0.899 |  |  |  | 
NCI-H650 | 0.835 | 0.655 | 0.747 | 0.52 | 0.706 | 0.676 | 0.694 | 0.689 | 0.736 | 0.834 | 0.744 | 0.966 | 1.08 |  |  |  | 
NCI-H661 | 1.01 | 0.942 | 1.05 | 0.798 | 0.298 | 0.364 | 0.352 | 0.359 | 0.355 | 0.935 | 0.961 | 0.919 | 0.485 |  |  |  | 
NCI-H727 | 0.828 | 0.821 | 0.868 | 0.738 | 0.594 | 0.654 | 0.557 | 0.648 | 0.7 |  |  |  |  | 0.479 | 0.382 | 0.39 | 0.48
NCI-H1299 | 0.92 | 0.953 | 0.951 | 0.767 |  |  |  |  |  |  |  |  |  | 1.08 | 0.996 | 1.01 | 1.03
NCI-H1395 |  |  |  |  | 0.873 | 0.686 | 0.782 | 0.814 | 0.682 | 0.857 | 0.737 | 1.03 | 0.906 | 1.4 | 0.799 | 1.53 | 1.55
NCI-H1563 | 0.915 | 0.802 | 0.838 | 0.886 |  |  |  |  |  | 0.753 | 0.726 | 0.86 | 0.745 |  |  |  | 
NCI-H1623 |  |  |  |  | 0.392 | 0.469 | 0.449 | 0.441 | 0.511 |  |  |  |  |  |  |  | 
NCI-H1703 | 0.612 | 0.13 | 0.459 | 0.175 |  |  |  |  |  |  |  |  |  | 1.07 | 1.29 | 0.938 | 0.319
NCI-H1792 | 1 | 1.05 | 0.994 | 0.984 |  |  |  |  |  | 0.713 | 0.762 | 0.805 | 0.971 | 0.595 | 0.615 | 0.63 | 0.612
NCI-H1793 |  |  |  |  | 0.329 | 0.289 | 0.291 | 0.214 | 0.238 | 0.708 | 0.896 | 1.03 | 0.954 |  | 0.337 | 0.422 | 0.301
NCI-H2342 |  |  |  |  | 0.625 | 0.582 | 0.575 | 0.498 | 0.457 | 0.75 | 0.742 | 0.764 | 0.788 |  |  |  | 
SW 900 |  |  |  |  | 0.57 | 0.506 |  | 0.344 | 0.39 |  | 0.492 | 0.489 | 0.47 |  |  |  | 
